Reference: paper PMC9784828, “Antimicrobial Activity of Peptide-Coupled Antisense Peptide Nucleic Acids in Streptococcus pneumoniae” (Microbiology Spectrum, 2022)

System: G. mellonella larvae infected with S. pneumoniae TIGR4
Experiment: G. mellonella infection model, bacterial load
Type: in vivo, Galleria mellonella
Settings: 10 nmol CPP-PNA/larva; 24 h postinfection; n = 4 larvae per group, three experiments
Description: To establish the antibacterial effect of PNAs in the invertebrate infection model, we assessed the bacterial loads in infected larvae (Fig. 6). Larvae were infected and subsequently treated with NaCl (mock), 10 nmol CPP-PNA, or levofloxacin (positive control), respectively. From each group, four larvae were homogenized at 24 h postinfection. CFU/larva were determined following serial dilutions of the suspension and plating on selective medium. Treatment with (RXR)4XB-anti-gyrA caused a log CFU reduction of 1 compared to that in the mock-treated larvae. The addition of 1 or 10 μg levofloxacin led to a log CFU reduction of 2 or 6, respectively.
For determination of bacterial load, larvae were infected and subsequently treated with NaCl (mock), CPP-PNAs, or levofloxacin (positive control). At 24 h after infection, larvae were homogenized. Following serial dilution, the suspension was plated on selective medium (BD Columbia CNA Agar with 5% sheep blood; Becton Dickinson GmbH, Heidelberg, Germany). Agar plates were incubated overnight at 37°C, 5% CO2. CFU/larva was determined by visual inspection. Colony identity was verified on a random basis by colony PCR using ply-specific primers.

“RXRRXRRXRRXRXB-eg-tgcattaata [(RXR)4XB-anti-gyrA PNA, (RXR)4XB peptide coupled to antisense PNA against gyrA]” was tested, and the “log CFU reduction of bacterial load compared to mock-treated larvae” value was 1.
